Laboratory results as given in patent US20230132256A1, “COMBINATION THERAPY” (ADC THERAPEUTICS SA, priority 2018, published 2023).

Tested on: CT26 syngeneic model (subcutaneous CT26 tumors)
Assay: In vivo efficacy study testing combination of sur301 (sADC×25) with gemcitabine in the CT26 syngeneic model
Design: species or system female BALB/c mice
Conditions: Gemcitabine 80 mg/kg i.p. q3d×4 (Days 1, 4, 7, 10), single agent, animals of n=10/group
Method: On the day of implant, cultured CT26 cells were harvested during log phase growth and resuspended in PBS at a concentration of 3×10^6 cells/mL. Tumors were initiated by subcutaneously implanting 3×10^5 CT26 cells (0.1 mL suspension) into the right flank of each test animal. Tumors were monitored as their volumes approached the target range of 80-120 mm^3. Tumor were measured in two dimensions using calipers, and volume was calculated using the formula:
Tumor Volume (mm^3)=w2×l/2
where w=width and l=length, in mm, of the tumor. Tumor weight may be estimated with the assumption that 1 mg is equivalent to 1 mm3 of tumor volume.
Fifteen days after tumor cell implantation, on Day 1 of the study, animals were sorted into groups (n=10/group) with individual tumor volumes of 75 to 144 mm^3, and group mean tumor volumes of 104-106 mm^3.
All doses were administered intraperitoneally (i.p.). The dosing volume was 0.2 mL per 20 grams of body weight (10 mL/kg), and was scaled to the body weight of each individual animal.
Gemcitabine was administered at 80 mg/kg q3d×4 which corresponded to Days 1, 4, 7 and 10.
The antibody component of ADC×25 specifically binds human CD25. […]
Tumors were measured using calipers twice per week, and each animal was euthanized when its tumor reached the endpoint volume of 2000 mm^3 or at the end of the study (Day 56), whichever came first.
Response Table Criteria: • Treatment may cause partial regression (PR) or complete regression (CR) of the tumor in an animal. • In a PR response, the tumor volume is 50% or less of its Day 1 volume for three consecutive measurements during the course of the study, and equal to or greater than 13.5 mm3 for one or more of these three measurements. • In a CR response, the tumor volume is less than 13.5 mm3 for three consecutive measurements during the study. • Any animal with a CR response at the end of the study was additionally classified as a tumor-free survivor (TFS). • Animals were scored only once during the study for a PR or CR event and only as CR if both PR and CR criteria were satisfied. […]

Nc1ccn([C@@H]2O[C@H](CO)[C@@H](O)C2(F)F)c(=O)n1 [Gemcitabine]
0: CR (complete regression) | PR (partial regression) | TFS (tumor-free survivor) (end of study Day 56)
